According to patent publication US9932543B2, “Bacterial spore compositions for industrial uses” (priority 2014, dated 2018):
Bridge positions count the residues as written; N and C are the ends. Square brackets hold non-standard residues; d marks the D form. Peptide text beside a SMILES is read from it. * marks the point of attachment. Ileψ(thiazoline)Cys = CC[C@H](C)[C@H](N)C1=N[C@H](C(=O)*)CS1; dOrn = NCCC[C@@H](N)C(=O)O

System: Eimeria maxima and Clostridium perfringens
Format: in vivo, Cobb 500 Chicks (Gallus gallus domesticus)
Conditions: infected chickens

## CC[C@H](C)[C@H](N)C1=N[C@H](C(=O)N[C@@H](CC(C)C)C(=O)N[C@H](CCC(=O)O)C(=O)N[C@H](C(=O)N[C@H]2CCCCNC(=O)[C@H](CC(N)=O)NC(=O)[C@@H](CC(=O)O)NC(=O)[C@H](Cc3cnc[nH]3)NC(=O)[C@@H](Cc3ccccc3)NC(=O)[C@H]([C@@H](C)CC)NC(=O)[C@@H](CCCN)NC2=O)[C@@H](C)CC)CS1 [Treatment Group 5, Bacitracin] ({Ileψ(thiazoline)Cys}-L[dE]IK[dOrn]I[dF]H[dD]N; lactam 4-C)
  Weight Gain Day 0-28: 0.811a kg
Day 0-28
  Weight gain over the infected negative control: significant increase in weight gain
Day 28
  Mortality: 3.1b %
Day 28, 0 normal, 3 most severe
  Lesion Score (0-3): 0.5b
Kg of food per kg of body weight
  Feed Conversion Day 0-28: 1.585c
